Test results taken from PubChem BioAssay (NCI).
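Exposure lasted 48 hours, with cells grown in 96-well plates and compounds tested at five concentrations. TGI: total growth inhibition.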

Tests used:
Test in all cases: NCI anticancer screen, dose series, 48 h
HT29 colon = system: HT29 colon
IGROV1 ovarian = system: IGROV1 ovarian
SF-295 CNS = system: SF-295 CNS
MALME-3M melanoma = system: MALME-3M melanoma
EKVX NSCLC = system: EKVX NSCLC
NCI-H522 lung = system: NCI-H522 lung
SK-MEL-5 melanoma = system: SK-MEL-5 melanoma
SN12C renal = system: SN12C renal
OVCAR-4 ovarian = system: OVCAR-4 ovarian
NCI-H23 lung = system: NCI-H23 lung
HCC-2998 colon = system: HCC-2998 colon
SNB-75 CNS = system: SNB-75 CNS
RXF-631 renal = system: RXF-631 renal
SW-620 colon = system: SW-620 colon
HOP-92 NSCLC = system: HOP-92 NSCLC
NCI-H226 lung = system: NCI-H226 lung
DLD-1 colon = system: DLD-1 colon
U251 CNS = system: U251 CNS
KM12 colon = system: KM12 colon
DMS 114 small cell lung = system: DMS 114 small cell lung
MOLT-4 leukemia = system: MOLT-4 leukemia
XF 498 CNS = system: XF 498 CNS
SNB-78 CNS = system: SNB-78 CNS
OVCAR-8 ovarian = system: OVCAR-8 ovarian
NCI-H460 lung = system: NCI-H460 lung
SK-MEL-2 melanoma = system: SK-MEL-2 melanoma
M14 melanoma = system: M14 melanoma
SK-OV-3 ovarian = system: SK-OV-3 ovarian
HCT-116 colon = system: HCT-116 colon
KM20L2 colon = system: KM20L2 colon
OVCAR-5 ovarian = system: OVCAR-5 ovarian
OVCAR-3 ovarian = system: OVCAR-3 ovarian
UACC-62 melanoma = system: UACC-62 melanoma
SK-MEL-28 melanoma = system: SK-MEL-28 melanoma
RXF 393 renal = system: RXF 393 renal
HOP-18 NSCLC = system: HOP-18 NSCLC
UACC-257 melanoma = system: UACC-257 melanoma
786-0 renal = system: 786-0 renal
SF-539 CNS = system: SF-539 CNS
LXFL 529 NSCLC = system: LXFL 529 NSCLC
SR leukemia = system: SR leukemia
ACHN renal = system: ACHN renal
TK-10 renal = system: TK-10 renal
HCT-15 colon = system: HCT-15 colon
UO-31 renal = system: UO-31 renal
K-562 leukemia = system: K-562 leukemia
A549 NSCLC = system: A549 NSCLC
CAKI-1 renal = system: CAKI-1 renal
RPMI-8226 leukemia = system: RPMI-8226 leukemia
SNB-19 CNS = system: SNB-19 CNS
COLO 205 colon = system: COLO 205 colon
A498 renal = system: A498 renal
DMS 273 small cell lung = system: DMS 273 small cell lung
SF-268 CNS = system: SF-268 CNS
HL-60(TB) leukemia = system: HL-60(TB) leukemia
HOP-62 NSCLC = system: HOP-62 NSCLC
LOX IMVI melanoma = system: LOX IMVI melanoma
CCRF-CEM leukemia = system: CCRF-CEM leukemia
M19-MEL melanoma = system: M19-MEL melanoma

Measured: TGI

CC(=O)OC1CCn2nnc(COC(=O)NC(C)C)c21 (stereo not given)
not listed: COLO 205 colon | A498 renal | DMS 273 small cell lung | SF-268 CNS | HL-60(TB) leukemia | HOP-62 NSCLC | LOX IMVI melanoma | CCRF-CEM leukemia | M19-MEL melanoma
> 100 µM: all other assays above

O=C(OCCOCBr)c1ccccc1
not listed: XF 498 CNS | RXF 393 renal | M19-MEL melanoma
> 100 µM: all other assays above

O=c1cc(Cl)nc[nH]1
not listed: HOP-92 NSCLC | XF 498 CNS | RXF 393 renal | SF-539 CNS | SR leukemia
> 100 µM: all other assays above
